Here are results for nine compounds from patent US8841413B2, “Antidiabetic compounds” (Cadila Healthcare Limited, priority 2006, dated 2014).

Test [1] deals with T1, Human GLP-1 receptor (Homo sapiens, UniProt P43220).
T1 construct: The full-length cDNA was cloned in pcDNA3.1(+); expressed in transfected cells
Type of test: cell-based. The following applies: in vitro, FIG. 4. The method, then: The novel peptidomimetics were screened for Human GLP-1 receptor (HGLP-1 R) agonist activity (in vitro), using the cAMP cell-based assay, in stably transfected CHO/human GLP1R cells. […] CHO cells were grown in Ham's F12 medium containing L-Glutamine (2 mM), HEPES (25 mM), NaHCO3 (1.1 g/L) and supplemented with NewBorn Calf Serum (NBCS; 10%), Penicillin (50 U/ml (v/v)) and Streptomycin (50 ug/ml (v/v)). Cells were split every 3 days 1:8.
The cDNA encoding the human GLP-1 receptor was isolated by RT-PCR according to standard protocol. The full-length cDNA was cloned in pcDNA3.1(+). […] Clones expressing the receptor were generated by G418 (800 μg/ml active, Sigma) selection. The stable clones were thereafter maintained at 500 ug/ml (G418). The selected clone was used between passages 9-25 for cAMP assays.
The trypsin was inactivated using Ham's F12 medium containing 10% NBCS and the cells were suspended in 2 ml of complete medium. […] The medium was aspirated off from the 12 well plate and the cells were washed once using Ham's F12 (plain). […] The cells were incubated with the test compounds for 30 min in humidified atmosphere and 37° C. After the incubation, the medium was removed and cells were washed once with plain Ham's F12. Subsequently, the cells were lysed by adding 500 ul of ice cold 0.1 N HCl to each well and shaking for 30 minutes at 200 rpm. […] The total cAMP was estimated from the sample according to the manufacturer's protocol using Cyclic AMP immunoassay kit (R&D systems, Minneapolis. MN). The remaining supernatant is used to determine the protein concentration using micro BCA (Sigma). Data is calculated as percent of control (Vehicle: water) and expressed as Mean±SD.

In test [2] the test system is C57BL/6J mice. Nature of the test: Acute single dose 120-min time-course experiment, in vivo glucose reduction in C57BL/6J mice. The following applies: male C57BL/6J mice, Mean ± SEM. Set-up: unit not given here. The method, then:
All the animal experiments were carried out according to the internationally valid guidelines following approval by the ‘Zydus Research Center animal ethical committee’. […] Two days prior to the study, the animals were randomised and divided into 5 groups (n=6), based upon their fed glucose levels. On the day of experiment, food was withdrawn from all the cages, water was given ad-libitum and were kept for overnight fasting. Vehicle (normal saline)/test/standard compounds were administered intraperitoneally (i.p.) or orally, on a body weight basis. […] Blood samples were centrifuged and the separated serum was immediately subjected for the glucose estimation. Serum for insulin estimation was stored at −70° C. until used for the insulin estimation. The glucose estimation was carried out with DPEC-GOD/POD method (Ranbaxy Fine Chemicals Limited, Diagnostic division, India), using Spectramax-190, in 96-microwell plate reader (Molecular devices Corporation, Sunnyvale, Calif.). […] The AUC and BCAUC obtained from graphs were analyzed for one way ANOVA, followed by Dunnett's post test, using Graph Pad prism software. Furthermore, the insulin estimation was carried out using rat/mouse insulin ELISA kit (Linco research, Mo. USA).

T1 sequence (P43220 24-463): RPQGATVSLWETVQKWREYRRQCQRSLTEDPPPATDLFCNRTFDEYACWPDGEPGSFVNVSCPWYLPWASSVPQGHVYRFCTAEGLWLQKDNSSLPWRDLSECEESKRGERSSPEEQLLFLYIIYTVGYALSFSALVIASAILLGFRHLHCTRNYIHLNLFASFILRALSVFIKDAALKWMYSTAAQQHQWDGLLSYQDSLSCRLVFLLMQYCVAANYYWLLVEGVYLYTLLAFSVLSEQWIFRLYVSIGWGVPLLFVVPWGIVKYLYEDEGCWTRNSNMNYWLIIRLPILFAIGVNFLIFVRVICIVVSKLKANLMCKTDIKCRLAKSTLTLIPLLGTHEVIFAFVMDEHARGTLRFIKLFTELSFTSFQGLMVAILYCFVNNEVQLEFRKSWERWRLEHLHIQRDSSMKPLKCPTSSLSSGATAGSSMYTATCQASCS

Regarding `CCc1cc(OC)ccc1-c1ccc(CC(NC(=O)[C@H](CC(=O)O)NC(=O)[C@H](CO)NC(=O)[C@@H](NC(=O)[C@H](Cc2ccccc2)NC(=O)[C@@H](NC(=O)CNC(=O)[C@H](CCC(N)=O)NC(=O)[C@H](CO)NC(=O)[C@@H](N)Cc2c[nH]cn2)[C@@H](C)O)[C@@H](C)O)C(=O)NC(Cc2ccc(-c3ccccc3C)cc2)C(N)=O)cc1` (single isomer, unassigned) [Seq. ID. No. 5], in test [1], the “GLP-1 receptor agonistic activity (in words)” value is given as “GLP-1 receptor agonistic activity”.

Consider `CCc1cc(OC)ccc1-c1ccc(CC(NC(=O)[C@H](CC(=O)O)NC(=O)[C@H](CO)NC(=O)[C@@H](NC(=O)[C@H](Cc2ccccc2)NC(=O)[C@@H](NC(=O)CNC(=O)[C@H](CCC(N)=O)NC(=O)[C@H](C)NC(=O)[C@@H](N)Cc2c[nH]cn2)[C@@H](C)O)[C@@H](C)O)C(=O)NC(Cc2ccc(-c3ccccc3C(F)(F)F)cc2)C(N)=O)cc1` (single isomer, unassigned) [Seq. ID. No. 12], for which the blood glucose level is given as 184 ± 5.0 in test [2] (50 nM/kg, i.p, 0 min); 122 ± 3.8 in test [2] (50 nM/kg, i.p, 30 min); 128 ± 2.1 in test [2] (50 nM/kg, i.p, 60 min); 149 ± 2.3 in test [2] (50 nM/kg, i.p, 120 min).

For the compound `CCc1cc(OC)ccc1-c1ccc(CC(NC(=O)[C@H](CC(=O)O)NC(=O)[C@H](CO)NC(=O)[C@@H](NC(=O)[C@H](Cc2ccccc2)NC(=O)[C@@H](NC(=O)CNC(=O)[C@H](CCC(N)=O)NC(=O)C(C)(C)NC(=O)[C@@H](N)Cc2c[nH]cn2)[C@@H](C)O)[C@@H](C)O)C(=O)NC(Cc2ccc(-c3ccccc3C(F)(F)F)cc2)C(N)=O)cc1` (single isomer, unassigned) [Seq. ID. No. 16, H-Aib-QGTFTSD-Bip(OMe)-Bip(2CF3)], the blood glucose level was determined as 183 ± 4.9 in test [2] (30 nM/kg, i.p, 0 min); 117 ± 2.5 in test [2] (30 nM/kg, i.p, 30 min); 116 ± 2.3 in test [2] (30 nM/kg, i.p, 60 min); 119 ± 2.0 in test [2] (30 nM/kg, i.p, 120 min).

With `CCc1cc(OC)ccc1-c1ccc(CC(NC(=O)[C@H](CC(=O)O)NC(=O)[C@H](CO)NC(=O)[C@@H](NC(=O)[C@H](Cc2ccccc2)NC(=O)[C@@H](NC(=O)CNC(=O)[C@H](CCC(N)=O)NC(=O)C2(NC(=O)[C@@H](N)Cc3c[nH]cn3)CC2)[C@@H](C)O)[C@@H](C)O)C(=O)NC(Cc2ccc(-c3ccccc3F)cc2)C(N)=O)cc1` (single isomer, unassigned) [Seq. ID. No. 19, H-(ACP)-QGTFTSD-Bip(OMe)-Bip(2F)], the blood glucose level in test [2] (30 nM/kg, i.p, 0 min) is recorded as 180 ± 3.2; in test [2] (30 nM/kg, i.p, 30 min), 119 ± 3.2; in test [2] (30 nM/kg, i.p, 60 min), 117 ± 3.1; in test [2] (30 nM/kg, i.p, 120 min) it was 118 ± 1.8.

With `CCc1cc(OC)ccc1-c1ccc(CC(NC(=O)[C@H](CC(=O)O)NC(=O)[C@H](CO)NC(=O)[C@@H](NC(=O)C(C)(Cc2ccccc2F)NC(=O)[C@@H](NC(=O)CNC(=O)[C@H](CCC(N)=O)NC(=O)[C@H](CO)NC(=O)[C@@H](N)Cc2c[nH]cn2)[C@@H](C)O)[C@@H](C)O)C(=O)NC(Cc2ccc(-c3ccccc3F)cc2)C(N)=O)cc1` (single isomer, unassigned) [Seq. ID. No. 23, HSQGT-(α-Me-2F-Phe)-TSD-Bip(OMe)-Bip(2F)], the blood glucose level in test [2] (20 nM/kg, i.p, 0 min) amounted to 180 ± 3.1; in test [2] (20 nM/kg, i.p, 30 min), 122 ± 3.9; in test [2] (20 nM/kg, i.p, 60 min), 129 ± 2.2; in test [2] (20 nM/kg, i.p, 120 min), 140 ± 2.9.

With `CCc1cc(OC)ccc1-c1ccc(CC(NC(=O)[C@H](CC(=O)O)NC(=O)[C@H](CO)NC(=O)[C@@H](NC(=O)C(C)(Cc2ccccc2F)NC(=O)[C@@H](NC(=O)CNC(=O)[C@H](CCC(N)=O)NC(=O)[C@H](C)NC(=O)[C@@H](N)Cc2c[nH]cn2)[C@@H](C)O)[C@@H](C)O)C(=O)NC(Cc2ccc(-c3ccccc3C(F)(F)F)cc2)C(N)=O)cc1` (single isomer, unassigned) [Seq. ID. No. 28, HAQGT-(α-Me-2F-Phe)-TSD-Bip(OMe)-Bip(2CF3)], the blood glucose level in test [2] (20 nM/kg, i.p, 0 min) came to 182 ± 2.1; in test [2] (20 nM/kg, i.p, 30 min) it was 121 ± 2.9; in test [2] (20 nM/kg, i.p, 60 min), 130 ± 3.1; in test [2] (20 nM/kg, i.p, 120 min), 138 ± 2.4.

As for `CCc1cc(OC)ccc1-c1ccc(CC(NC(=O)[C@H](CC(=O)O)NC(=O)[C@H](CO)NC(=O)[C@@H](NC(=O)C(C)(Cc2ccccc2F)NC(=O)[C@@H](NC(=O)CNC(=O)[C@H](CCC(N)=O)NC(=O)C(C)(C)NC(=O)[C@@H](N)Cc2c[nH]cn2)[C@@H](C)O)[C@@H](C)O)C(=O)NC(Cc2ccc(-c3ccccc3C)cc2)C(N)=O)cc1` (single isomer, unassigned) [Seq. ID. No. 29, H-Aib-QGT-(α-Me-2F-Phe)-TSD-Bip(OMe)-Bip(2Me)], the blood glucose level in test [2] (10 nM/kg, i.p, 0 min) came to 180 ± 2.5; in test [2] (10 nM/kg, i.p, 30 min), 110 ± 2.6; in test [2] (10 nM/kg, i.p, 60 min), 111 ± 3.2; in test [2] (10 nM/kg, i.p, 120 min), 112 ± 2.3; in test [2] (2 μM/kg, oral, 0 min), 184 ± 2.5; in test [2] (2 μM/kg, oral, 30 min), 115 ± 3.6. The blood glucose level was 113 ± 4.2 in test [2] (2 μM/kg, oral, 60 min) and 110 ± 2.4 in test [2] (2 μM/kg, oral, 120 min).

Turning to `CCc1cc(OC)ccc1-c1ccc(CC(NC(=O)[C@H](CC(=O)O)NC(=O)[C@H](CO)NC(=O)[C@@H](NC(=O)C(C)(Cc2ccccc2F)NC(=O)[C@@H](NC(=O)CNC(=O)[C@H](CCC(N)=O)NC(=O)C(C)(C)NC(=O)[C@@H](N)Cc2c[nH]cn2)[C@@H](C)O)[C@@H](C)O)C(=O)NC(Cc2ccc(-c3ccccc3C)nc2)C(N)=O)cc1` (single isomer, unassigned) [Seq. ID. No. 30, H-Aib-QGT-(α-Me-2F-Phe)-TSD-Bip(OMe)-Bip(Pyr)], the blood glucose level in test [2] (10 nM/kg, i.p, 0 min) is on record as 182 ± 2.1; in test [2] (10 nM/kg, i.p, 30 min), 111 ± 2.1; in test [2] (10 nM/kg, i.p, 60 min) it was 112 ± 2.8; in test [2] (10 nM/kg, i.p, 120 min), 113 ± 2.2; in test [2] (2 μM/kg, oral, 0 min) it was 183 ± 2.4; in test [2] (2 μM/kg, oral, 30 min) it was 116 ± 3.1. Further, the blood glucose level in test [2] (2 μM/kg, oral, 60 min) was 112 ± 4.8; in test [2] (2 μM/kg, oral, 120 min), 110 ± 2.5.

For the compound `CCc1cc(OC)ccc1-c1ccc(CC(NC(=O)[C@H](CC(=O)O)NC(=O)[C@H](CO)NC(=O)[C@@H](NC(=O)C(C)(Cc2ccccc2F)NC(=O)[C@@H](NC(=O)CNC(=O)[C@H](CCC(N)=O)NC(=O)C(C)(C)NC(=O)[C@@H](N)Cc2c[nH]cn2)[C@@H](C)O)[C@@H](C)O)C(=O)NC(Cc2ccc(-c3ccccc3F)cc2)C(N)=O)cc1` (single isomer, unassigned) [Seq. ID. No. 31, H-Aib-QGT-(α-Me-2F-Phe)-TSD-Bip(OMe)-Bip(2F)], the blood glucose level in test [2] (10 nM/kg, i.p, 0 min) was 183 ± 2.2; in test [2] (10 nM/kg, i.p, 30 min), 113 ± 2.8; in test [2] (10 nM/kg, i.p, 60 min), 113 ± 2.9; in test [2] (10 nM/kg, i.p, 120 min), 114 ± 2.0; in test [2] (2 μM/kg, oral, 0 min) it was 185 ± 2.3; in test [2] (2 μM/kg, oral, 30 min), 115 ± 3.8. The blood glucose level in test [2] (2 μM/kg, oral, 60 min) was determined as 113 ± 4.9; in test [2] (2 μM/kg, oral, 120 min) it was 109 ± 2.2.
